# Assay results as given in ChEMBL document CHEMBL3822398, “Design, synthesis and in vitro biological evaluation of short-chain C12-sphinganine and its 1,2,3-triazole analogs as potential antimicrobial and anti-biofilm agents” (Eur J Med Chem, 2016).
# Tested on: Staphylococcus aureus
# Assay: Antibacterial activity against Staphylococcus aureus MLS16 MTCC 2940 incubated for 24 hrs at 37 degC by well diffusion method
# Format: functional
# Conditions: MLS16 MTCC 2940, 24 h
row,MIC [µg/mL],SMILES
1,> 250,CCCCCCCCC[C@@H](O)[C@H](CO)n1cc(CCO)nn1
2,> 250,CCCCCCCCC[C@@H](O)[C@H](CO)n1cc(CO)nn1
3,> 250,CCCCCCCCC[C@@H](O)[C@H](CO)n1cc(CCCCCC)nn1
4,> 250,CCCCCCCCC[C@@H](O)[C@H](CO)n1cc(-c2ccc3cc(OC)ccc3c2)nn1

row,SMILES,MIC [µg/mL]
1,O=C(O)c1cn(C2CC2)c2cc(N3CCNCC3)c(F)cc2c1=O [CIPROFLOXACIN],0.9

# Tested on: Escherichia coli
# Assay: Bactericidal activity against Escherichia coli MTCC 739 incubated for 24 hrs
# Format: functional
# Conditions: MTCC 739, 24 h
row,SMILES,MBC [µg/mL]
1,CCCCCCCCC[C@@H](O)[C@H](CO)n1cc(CCO)nn1,> 250
2,CCCCCCCCC[C@@H](O)[C@H](CO)n1cc(CO)nn1,> 250
3,CCCCCCCCC[C@@H](O)[C@H](CO)n1cc(CCCCCC)nn1,> 250
4,O=C(O)c1cn(C2CC2)c2cc(N3CCNCC3)c(F)cc2c1=O [CIPROFLOXACIN],1.9

# Tested on: Bacillus subtilis
# Assay: Bactericidal activity against Bacillus subtilis MTCC 121 incubated for 24 hrs
# Format: functional
# Conditions: MTCC 121, 24 h
row,SMILES,MBC [µg/mL]
1,CCCCCCCCC[C@@H](O)[C@H](CO)n1cc(CCO)nn1,31.2
2,CCCCCCCCC[C@@H](O)[C@H](CO)n1cc(CO)nn1,31.2
3,CCCCCCCCC[C@@H](O)[C@H](CO)n1cc(CCCCCC)nn1,15.6
4,O=C(O)c1cn(C2CC2)c2cc(N3CCNCC3)c(F)cc2c1=O [CIPROFLOXACIN],1.9

# Tested on: Raoultella planticola
# Assay: Antibacterial activity against Klebsiella planticola MTCC 530 incubated for 24 hrs at 37 degC by well diffusion method
# Format: functional
# Conditions: MTCC 530, 24 h
row,SMILES,MIC [µg/mL]
1,CCCCCCCCC[C@@H](O)[C@H](CO)n1cc(CCO)nn1,> 250
2,CCCCCCCCC[C@@H](O)[C@H](CO)n1cc(CO)nn1,> 250
3,CCCCCCCCC[C@@H](O)[C@H](CO)n1cc(CCCCCC)nn1,> 250
4,CCCCCCCCC[C@@H](O)[C@H](CO)n1cc(-c2ccc3cc(OC)ccc3c2)nn1,> 250
5,O=C(O)c1cn(C2CC2)c2cc(N3CCNCC3)c(F)cc2c1=O [CIPROFLOXACIN],0.9

# Tested on: Staphylococcus aureus
# Assay: Bactericidal activity against Staphylococcus aureus MTCC 96 incubated for 24 hrs
# Format: functional
# Conditions: MTCC 96, 24 h
row,SMILES,MBC [µg/mL]
1,CCCCCCCCC[C@@H](O)[C@H](CO)n1cc(CCO)nn1,31.2
2,CCCCCCCCC[C@@H](O)[C@H](CO)n1cc(CO)nn1,> 250
3,CCCCCCCCC[C@@H](O)[C@H](CO)n1cc(CCCCCC)nn1,3.9
4,O=C(O)c1cn(C2CC2)c2cc(N3CCNCC3)c(F)cc2c1=O [CIPROFLOXACIN],0.9

# Tested on: Pseudomonas aeruginosa
# Assay: Antibacterial activity against Pseudomonas aeruginosa MTCC 2453 incubated for 24 hrs at 37 degC by well diffusion method
# Format: functional
# Conditions: MTCC 2453, 24 h
row,MIC [µg/mL],SMILES
1,> 250,CCCCCCCCC[C@@H](O)[C@H](CO)n1cc(CCO)nn1
2,> 250,CCCCCCCCC[C@@H](O)[C@H](CO)n1cc(CO)nn1
3,> 250,CCCCCCCCC[C@@H](O)[C@H](CO)n1cc(CCCCCC)nn1
4,> 250,CCCCCCCCC[C@@H](O)[C@H](CO)n1cc(-c2ccc3cc(OC)ccc3c2)nn1

row,SMILES,MIC [µg/mL]
1,O=C(O)c1cn(C2CC2)c2cc(N3CCNCC3)c(F)cc2c1=O [CIPROFLOXACIN],0.9

# Tested on: Raoultella planticola
# Assay: Bactericidal activity against Klebsiella planticola MTCC 530 incubated for 24 hrs
# Format: functional
# Conditions: MTCC 530, 24 h
row,SMILES,MBC [µg/mL]
1,CCCCCCCCC[C@@H](O)[C@H](CO)n1cc(CCO)nn1,> 250
2,CCCCCCCCC[C@@H](O)[C@H](CO)n1cc(CO)nn1,> 250
3,CCCCCCCCC[C@@H](O)[C@H](CO)n1cc(CCCCCC)nn1,> 250
4,O=C(O)c1cn(C2CC2)c2cc(N3CCNCC3)c(F)cc2c1=O [CIPROFLOXACIN],0.9

# Tested on: Bacillus subtilis
# Assay: Antibacterial activity against Bacillus subtilis MTCC 121 incubated for 24 hrs at 37 degC by well diffusion method
# Format: functional
# Conditions: MTCC 121, 24 h
row,MIC [µg/mL],SMILES
1,31.2,CCCCCCCCC[C@@H](O)[C@H](CO)n1cc(CCO)nn1
2,31.2,CCCCCCCCC[C@@H](O)[C@H](CO)n1cc(CO)nn1
3,7.8,CCCCCCCCC[C@@H](O)[C@H](CO)n1cc(CCCCCC)nn1
4,> 250,CCCCCCCCC[C@@H](O)[C@H](CO)n1cc(-c2ccc3cc(OC)ccc3c2)nn1

row,SMILES,MIC [µg/mL]
1,O=C(O)c1cn(C2CC2)c2cc(N3CCNCC3)c(F)cc2c1=O [CIPROFLOXACIN],0.9

# Tested on: Micrococcus luteus
# Assay: Antibacterial activity against Micrococcus luteus MTCC 2470 incubated for 24 hrs at 37 degC by well diffusion method
# Format: functional
# Conditions: MTCC 2470, 24 h
row,MIC [µg/mL],SMILES
1,15.6,CCCCCCCCC[C@@H](O)[C@H](CO)n1cc(CCO)nn1
2,7.8,CCCCCCCCC[C@@H](O)[C@H](CO)n1cc(CO)nn1
3,7.8,CCCCCCCCC[C@@H](O)[C@H](CO)n1cc(CCCCCC)nn1
4,> 250,CCCCCCCCC[C@@H](O)[C@H](CO)n1cc(-c2ccc3cc(OC)ccc3c2)nn1

row,SMILES,MIC [µg/mL]
1,O=C(O)c1cn(C2CC2)c2cc(N3CCNCC3)c(F)cc2c1=O [CIPROFLOXACIN],0.9

# Tested on: Micrococcus luteus
# Assay: Bactericidal activity against Micrococcus luteus MTCC 2470 incubated for 24 hrs
# Format: functional
# Conditions: MTCC 2470, 24 h
row,SMILES,MBC [µg/mL]
1,CCCCCCCCC[C@@H](O)[C@H](CO)n1cc(CCO)nn1,31.2
2,CCCCCCCCC[C@@H](O)[C@H](CO)n1cc(CO)nn1,15.6
3,CCCCCCCCC[C@@H](O)[C@H](CO)n1cc(CCCCCC)nn1,15.6
4,O=C(O)c1cn(C2CC2)c2cc(N3CCNCC3)c(F)cc2c1=O [CIPROFLOXACIN],0.9

# Tested on: Staphylococcus aureus
# Assay: Bactericidal activity against Staphylococcus aureus MLS16 MTCC 2940 incubated for 24 hrs
# Format: functional
# Conditions: MLS16 MTCC 2940, 24 h
row,SMILES,MBC [µg/mL]
1,CCCCCCCCC[C@@H](O)[C@H](CO)n1cc(CCO)nn1,> 250
2,CCCCCCCCC[C@@H](O)[C@H](CO)n1cc(CO)nn1,> 250
3,CCCCCCCCC[C@@H](O)[C@H](CO)n1cc(CCCCCC)nn1,> 250
4,O=C(O)c1cn(C2CC2)c2cc(N3CCNCC3)c(F)cc2c1=O [CIPROFLOXACIN],1.9

# Tested on: Staphylococcus aureus
# Assay: Antibacterial activity against Staphylococcus aureus MTCC 96 incubated for 24 hrs at 37 degC by well diffusion method
# Format: functional
# Conditions: MTCC 96, 24 h
row,MIC [µg/mL],SMILES
1,31.2,CCCCCCCCC[C@@H](O)[C@H](CO)n1cc(CCO)nn1
2,> 250,CCCCCCCCC[C@@H](O)[C@H](CO)n1cc(CO)nn1
3,3.9,CCCCCCCCC[C@@H](O)[C@H](CO)n1cc(CCCCCC)nn1
4,> 250,CCCCCCCCC[C@@H](O)[C@H](CO)n1cc(-c2ccc3cc(OC)ccc3c2)nn1

row,SMILES,MIC [µg/mL]
1,O=C(O)c1cn(C2CC2)c2cc(N3CCNCC3)c(F)cc2c1=O [CIPROFLOXACIN],0.9

# Tested on: Escherichia coli
# Assay: Antibacterial activity against Escherichia coli MTCC 739 incubated for 24 hrs at 37 degC by well diffusion method
# Format: functional
# Conditions: MTCC 739, 24 h
row,MIC [µg/mL],SMILES
1,> 250,CCCCCCCCC[C@@H](O)[C@H](CO)n1cc(CCO)nn1
2,> 250,CCCCCCCCC[C@@H](O)[C@H](CO)n1cc(CO)nn1
3,> 250,CCCCCCCCC[C@@H](O)[C@H](CO)n1cc(CCCCCC)nn1
4,> 250,CCCCCCCCC[C@@H](O)[C@H](CO)n1cc(-c2ccc3cc(OC)ccc3c2)nn1

row,SMILES,MIC [µg/mL]
1,O=C(O)c1cn(C2CC2)c2cc(N3CCNCC3)c(F)cc2c1=O [CIPROFLOXACIN],0.9
